# According to patent US9937192B2, “Combination therapy to treat mycobacterium diseases” (priority 2012, dated 2018):
# Counter-ions that a name gives are not always drawn. Like-named read-outs stand apart in the source and are kept apart here.
# What was measured:
# M. smegmatis = assay: MIC in bacterial broth culture (7H9 with ADC, visual or resazurin); format: cell-based; settings: Mycolicibacterium smegmatis, Table 31
# [1] = Seven-Day Oral (Gavage) Toxicity and Toxicokinetics Study in Rats; format: in vivo, Crl:CD(SD) rats; settings: male rats
# Excerpt: Seven-Day Oral (Gavage) Toxicity and Toxicokinetics Study in Rats
# Crl:CD(SD) rats were obtained from Charles River Laboratories of Stone Ridge, N.Y. The animals were laboratory bred and experimentally naïve. Rats were chosen because they are a species that is commonly used for nonclinical toxicity evaluations.
# Animals received the test article or vehicle by oral gavage for 7 consecutive days and were terminated the day following completion of dosing. The first day of dosing was designated as Day 1 of the study. The animals were evaluated for changes in clinical signs, body weight, and other parameters as described below.
# The vehicle and test article were administered by oral gavage once daily for 7 consecutive days at a dose volume of 10 mL/kg body weight for Group A and Groups B-D, respectively. The test article and vehicle were administered by oral gavage twice daily, approximately 8 hours apart, for 7 consecutive days at a dose volume of 10 mL/kg body weight for Group E and Group F, respectively. The actual volume administered to each animal was calculated and adjusted based on the most recent body weight of each animal.
# During the treatment period, daily cageside observations were made and recorded predose and postdose (following the first dose only). The postdosing observations made during treatment occurred at the following times based on Cmax/Tmax for the two compounds from previous studies:
# Prior to start of dosing, body weights were measured for randomization on Day 1. During the treatment, body weights were measured on Day 1 and Day 7. In addition, fasted body weights were measured prior to necropsy for calculation of organ/body weight ratios.
# Throughout the study, food consumption was measured daily starting 3 days prior to start of dosing.
# Blood samples for evaluation of hematology, coagulation, and serum chemistry parameters were collected from all animals from the retro-orbital plexus (under CO2/O2 anesthesia, for the main study animals) or jugular vein cannula (for the toxicokinetic animals) prior to necropsy. Due to residual heparin used to keep the cannulas patent for the toxicokinetic animals, coagulation samples from these rats, were not able to be analyzed. The animals were fasted overnight prior to blood collection. On the day of blood collection for clinical pathology analyses, the animals were not necropsied until after the blood was collected and the samples judged to be acceptable by the clinical pathology group.
# On the 1st and 7th day of dosing, blood samples (approximately 0.5 mL/sample) were collected from the jugular vein cannula for all toxicokinetic animals at the timepoints listed below into K3EDTA-containing tubes. […] Prior to each collection, a small sample of blood (with heparin blocking solution) was removed from the cannula and discarded. A new syringe was placed on the cannula, and the protocol-required sample was taken. The syringe with the blood sample was removed, and a new syringe with saline attached to the cannula. Blood volume was replaced with an equal volume of saline and then blocking solution placed in the cannula. Each animal was returned to its cage until the next collection timepoint.
# For all animals euthanized at scheduled necropsies, the kidneys, liver, and prostate gland were weighed. Following weighing, an approximate 1 gram sample of liver and kidney was weighed, transferred to Precellys 7 mL CK28 Tissue Homogenizing tubes (Cat. No. 0904-01), snap-frozen, and analyzed.
# For all animals scheduled for the terminal necropsy, the kidneys, liver, and prostate were embedded in paraffin, sectioned and stained with hematoxylin and eosin for further examination by light microscopy. For Groups A, D, E, and F only, the remaining tissues listed above were embedded in paraffin, sectioned and stained with hematoxylin and eosin for further examination by light microscopy. […]
# M. tuberculosis H37Rv = assay: Minimum bactericidal concentration (MBC) assay; format: cell-based; settings: for Log Reduction: vs untreated control
# M. kansasii = assay: MIC in bacterial broth culture (7H9 with ADC, visual or resazurin); format: cell-based; settings: Mycobacterium kansasii, Table 31; M. kansasii 303; duplicate values
# [2] = system: intracellular M. tuberculosis in J774 cells; assay: Efficacy against intracellular M. tuberculosis (luciferase) in J774 cells; format: cell-based; settings: Mycobacterium tuberculosis, J774, 120 h
# [3] = system: intracellular M. tuberculosis in THP-1 cells; assay: microbe, parasite or virus in culture; format: cell-based; settings: Mycobacterium tuberculosis, H37RA
# M. tuberculosis = assay: microbe, parasite or virus in culture; format: cell-based; settings: Mycobacterium tuberculosis
# M. avium = assay: MIC in bacterial broth culture (7H9 with ADC, visual or resazurin); format: cell-based; settings: Table 31, duplicate values
# M. tuberculosis Erdman = assay: MBC assay, log killing reduction in CFU over a one month period of incubation (Table 35); format: cell-based; settings: for Log Reduction (cfu): Compound 23A at 4×MIC
# [4] = system: Non-Replicating (NRP) M. tuberculosis H37Ra; assay: Non-replicating (NRP) M. tuberculosis H37Ra (luciferase) culture assay; format: cell-based; settings: Mycobacterium tuberculosis, 336 h, read on day 14
# [5] = 300 mg/kg twice a day vs controls treated twice a day
structure (smiles),measurement,setting,value
"CCNC(=O)Nc1nc2cc(-c3cnc(C(C)(C)O)nc3)c(F)c([C@H]3CCCO3)c2[nH]1 [Compound 23A, methanesulfonic acid salt of 1-ethyl-3-[6-fluoro-5-[2-(1-hydroxy-1-methyl-ethyl)pyrimidin-5-yl]-7-[(2R)-tetrahydrofuran-2-yl]-1H-benzimidazol-2-yl]urea]",MIC,M. smegmatis,6.25 µg/mL
same,AST,[1]; [5],statistically higher
same,mean ALT,[1]; [5],statistically higher
same,mean calcium ion concentration (CA),[1]; [5],statistically lower
same,dose levels at which no adverse toxicity was demonstrated,[1]; 7 days oral gavage,≤ 600 mg/kg/day
same,adverse observations or effects on mean body weight,"[1]; 7 days oral gavage, all dose groups",No adverse observations or effects on mean body weight
same,histopathological findings,[1]; any dose regimen,No test article-related histopathological findings
same,NOEL (No-Observable-Effect-Level),[1]; once a day for 7 days orally via gavage,100 mg/kg
same,exposures for different dosage levels,[1]; toxicokinetics,dose related
same,Mean food consumption,"[1]; twice daily 300 mg/kg, not considered adverse",reduced
same,Log cfu,M. tuberculosis H37Rv; 0.039 ug/mL,5.36
same,Log Reduction,M. tuberculosis H37Rv; 0.039 ug/mL,0.77
same,Log cfu,M. tuberculosis H37Rv; 0.078 ug/mL,3.75
same,Log Reduction,M. tuberculosis H37Rv; 0.078 ug/mL,2.38
same,Log cfu,M. tuberculosis H37Rv; 0.156 ug/mL,1.04
same,Log Reduction,M. tuberculosis H37Rv; 0.156 ug/mL,5.09
same,Log cfu,M. tuberculosis H37Rv; 0.312 ug/mL,1.32
same,Log Reduction,M. tuberculosis H37Rv; 0.312 ug/mL,4.81
same,Log cfu,M. tuberculosis H37Rv; 0.625 ug/mL,1.04
same,Log Reduction,M. tuberculosis H37Rv; 0.625 ug/mL,5.09
same,MIC,M. kansasii,0.03 µg/mL
same,IC50,"[2]; ERDMAN, read-out: Mtb Erdman in J774 Cells (IC50)",< 0.17 µg/mL
same,IC50,"[2]; H37RV, read-out: Mtb H37Rv in J774 Cells (IC50)",0.21 µg/mL
same,IC50,[2]; read-out: Mtb CDC1551 in J774 Cells (IC50),0.12 µg/mL
same,IC50,"[3]; THP-1, 120 h, read-out: Mtb H37Ra in THP1 Cells (IC50)",0.03 µg/mL
same,MIC,"[3]; read-out: MIC, Macrophage Cells",0.03 µg/mL
same,MIC,"M. tuberculosis; GN9, Table 31, Mtb GN9, duplicate values, read-out: MIC",0.03 µg/mL
same,MIC,"M. tuberculosis; H37RA, read-out: MIC, Broth",0.01 µg/mL
same,MIC,"M. tuberculosis; H37RV, Table 33, M. tuberculosis strain H37Rv, read-out: MIC",0.125 µg/mL
same,MIC,"M. tuberculosis; Table 32, […], duplicate values, read-out: MIC",0.125 µg/mL
same,MIC,"M. tuberculosis; Table 33, M. tuberculosis strain AH13, read-out: MIC",0.5 µg/mL
same,MIC,"M. tuberculosis; Table 33, M. tuberculosis strain BW9, read-out: MIC",0.125 µg/mL
same,MIC,"M. tuberculosis; Table 33, M. tuberculosis strain H10460, read-out: MIC",0.5 µg/mL
same,MIC,"M. tuberculosis; Table 33, M. tuberculosis strain MC19062, read-out: MIC",0.125 µg/mL
same,MIC,"M. tuberculosis; Table 33, M. tuberculosis strain W10, read-out: MIC",0.125 µg/mL
same,MIC,"M. avium; Mycobacterium avium, M. avium 103, read-out: MIC",0.12 µg/mL
same,MIC,"M. avium; Mycobacterium avium, M. avium 3404.4, read-out: MIC",0.23 µg/mL
same,MIC,"M. avium; Mycobacterium avium, M. avium Far, read-out: MIC",0.23 µg/mL
same,MIC,M. avium; M. avium 103,0.23 µg/mL
same,killing kinetics (log reduction in CFU),"M. tuberculosis Erdman; 4×MIC, one month period of incubation",slow killing kinetics
same,Log Reduction (cfu),M. tuberculosis Erdman; day 0 of incubation,0 Log
same,Log Reduction (cfu),M. tuberculosis Erdman; day 1 of incubation,0.2 Log
same,Log Reduction (cfu),M. tuberculosis Erdman; day 2 of incubation,0.2 Log
same,Log Reduction (cfu),M. tuberculosis Erdman; day 3 of incubation,1.0 Log
same,Log Reduction (cfu),M. tuberculosis Erdman; day 7 of incubation,1.9 Log
same,Log Reduction (cfu),M. tuberculosis Erdman; day 14 of incubation,1.9 Log
same,Log Reduction (cfu),M. tuberculosis Erdman; day 21 of incubation,2.2 Log
same,Log Reduction (cfu),M. tuberculosis Erdman; day 28 of incubation,3.0 Log
same,IC50,[4],1 µg/mL
